Data set [1] in a line: Microsomal metabolic stability assay. The note with it: pH 7.4, 0.5 mg/mL protein, 1 μM compound. Format: in vitro ADME. As for the experimental part: Microsomal Metabolic Stability Assay
Microsomes were pre-incubated with test compound or control compounds for 5 min at 37° C. in 100 mM potassium phosphate buffer, pH 7.4, 1.0 mM EDTA. The reaction was initiated by addition of 15 μL of the NADPH regenerating system to 30 μL of each incubation mixture per time point. The final incubation condition was composed of 0.5 mg/mL microsomal protein, 1 μM test article/positive control, 2 mM NADPH. The 0-minute samples were prepared by addition of a 30 μL aliquot of each incubation mixture to 135 μL quench reagent to precipitate proteins. And then a 15 μL aliquot of the NADPH regenerating system was added. At 5, 15, 30 and 45 minutes, the reaction will be stopped by the addition of cold acetonitrile solution containing internal standard. The samples taken at all time points were centrifuged at 5000×g for 15 minutes. 50 μL of supernatant are taken into 96-well assay plates pre-added with 50 μL ultrapure water, and then analyzed by LC/MS/MS.
Concentrations of test articles, control compounds in the samples were determined by using LC/MS/MS method. Plotting of the chromatograms and peak area integrations are carried out by Analyst (AB Sciex).
n the determination of the in vitro elimination constant (ke) of the control compounds, the analyte/internal standard peak area ratios will be converted to percentage remaining (% Remaining) with the following equation: […]
The slope was measured by the natural logarithm of the percentage of the residual compound and time, T1/2 was calculated according to the following formula.

Data set [2] addresses T1, Ba/F3-FL-TYK2-P760L cells (Homo sapiens, UniProt P29597, P760L, cells depend on it).
T1 construct: BaF3-FL-T2P760L (nM)
Nature of the data set: Anti-proliferative assay, Ba/F3-FL-TYK2-P760L cells (Cell-Titer Glo). Conditions: 72 h, read-out: BaF3-FL-T2P760L IC50. Type of data set: cell-based. An outline of the steps: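 Ba/F3 cells made IL-3-independent by TEL-fused or full-length mutant JAK-family kinases, seeded at 2000/well and dosed after 24 h with 9 three-fold dilutions topping at 20 μM. Viability after 72 h at 37 °C, 5% CO2 by Cell-Titer Glo ATP luminescence.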

Setting [3] is: dog liver microsomes, read-out: Dog LM Clint.
Where [4] appears, read: dog liver microsomes, read-out: Dog LM T½.
Setting [5] is: human liver microsomes, read-out: Human LM Clint.
The mark [6] stands for this setting: human liver microsomes, read-out: Human LM T½.
Where [7] appears, read: rat liver microsomes, read-out: Rat LM Clint.
The mark [8] stands for this setting: rat liver microsomes, read-out: Rat LM T½.

Read-outs that look alike come from different tables or passages of the source.

T1 sequence (P29597 whole entry P760L): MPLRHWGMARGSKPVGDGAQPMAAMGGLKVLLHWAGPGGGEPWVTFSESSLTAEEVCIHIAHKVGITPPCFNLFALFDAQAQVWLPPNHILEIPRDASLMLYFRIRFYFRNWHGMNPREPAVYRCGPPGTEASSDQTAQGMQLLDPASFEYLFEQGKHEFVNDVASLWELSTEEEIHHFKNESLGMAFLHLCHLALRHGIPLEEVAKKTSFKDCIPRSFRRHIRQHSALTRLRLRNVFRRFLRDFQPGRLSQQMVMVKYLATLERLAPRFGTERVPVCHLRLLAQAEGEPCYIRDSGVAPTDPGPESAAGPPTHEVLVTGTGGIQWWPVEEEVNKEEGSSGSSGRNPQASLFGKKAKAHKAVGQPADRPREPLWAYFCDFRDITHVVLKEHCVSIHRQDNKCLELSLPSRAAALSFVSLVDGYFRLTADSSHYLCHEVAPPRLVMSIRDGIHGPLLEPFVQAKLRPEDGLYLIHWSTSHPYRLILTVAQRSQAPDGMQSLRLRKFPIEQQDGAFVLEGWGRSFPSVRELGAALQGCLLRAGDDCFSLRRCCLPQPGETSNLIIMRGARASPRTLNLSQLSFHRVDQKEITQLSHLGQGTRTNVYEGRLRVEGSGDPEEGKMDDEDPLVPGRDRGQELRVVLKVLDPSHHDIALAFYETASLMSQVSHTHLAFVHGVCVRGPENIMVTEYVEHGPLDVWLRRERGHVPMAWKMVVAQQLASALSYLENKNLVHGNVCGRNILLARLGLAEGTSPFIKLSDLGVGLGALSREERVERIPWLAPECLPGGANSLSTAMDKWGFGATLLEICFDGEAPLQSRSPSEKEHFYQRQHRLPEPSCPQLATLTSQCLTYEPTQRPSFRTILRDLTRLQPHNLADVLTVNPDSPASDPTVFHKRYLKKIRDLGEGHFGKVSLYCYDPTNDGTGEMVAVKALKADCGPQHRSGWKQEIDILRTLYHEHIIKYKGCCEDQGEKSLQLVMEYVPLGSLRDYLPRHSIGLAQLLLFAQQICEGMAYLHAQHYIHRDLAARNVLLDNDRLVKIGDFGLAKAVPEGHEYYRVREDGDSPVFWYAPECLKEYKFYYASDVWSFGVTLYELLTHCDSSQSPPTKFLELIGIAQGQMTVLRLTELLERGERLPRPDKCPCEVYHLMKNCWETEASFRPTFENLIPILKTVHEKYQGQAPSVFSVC

Turning to `[2H]C([2H])([2H])NC(=O)c1nnc2cc1Nc1cc(cc(-n3cnc(C)n3)c1OC)COCc1nc(ccc1F)N2` [Example 75, 18-Fluoro-10-methoxy-N-(methyl-d3)-11-(3-methyl-1H-1,2,4-triazol-1-yl)-15-oxa-2,4,5,8,21-pentaazatetracyclo[15.3.1.1^{3,7}.1^{9,13}]tricosa-1(20),3,5,7(23),9(22),10,12,17(21),18-nonaene-6-carboxamide], the microsomal CLint at 1 μM was 37.7 µL/min/mg in data set [1] (setting [3]), 21.8 µL/min/mg in data set [1] (setting [5]) and 22.6 µL/min/mg in data set [1] (setting [7]). In addition, the half-life at 1 μM is 0.613 h in data set [1] (setting [4]), 1.06 h in data set [1] (setting [6]) and 1.02 h in data set [1] (setting [8]). Also, the GI50 in data set [2] came to 108 nM.

On to `[2H]C([2H])([2H])NC(=O)c1cnc2nc1Nc1cc(cc(-c3ncn(C)n3)c1OC)COCc1cc(ccc1F)N2` [Example 76, 18-Fluoro-10-methoxy-N-(methyl-d3)-11-(1-methyl-1H-1,2,4-triazol-3-yl)-15-oxa-2,4,8,23-tetraazatetracyclo[15.3.1.1^{3,7}.1^{9,13}]tricosa-1(20),3,5,7(23),9(22),10,12,17(21),18-nonaene-6-carboxamide], for which the microsomal CLint at 1 μM in data set [1] (setting [3]) was determined as 12.3 µL/min/mg; in data set [1] (setting [5]) it was 20.5 µL/min/mg; in data set [1] (setting [7]), 19.6 µL/min/mg. The half-life at 1 μM is 1.88 h in data set [1] (setting [4]), 1.12 h in data set [1] (setting [6]) and 1.18 h in data set [1] (setting [8]). In addition, the GI50 in data set [2] worked out at 58.7 nM.

Turning to `[2H]C([2H])([2H])NC(=O)c1cnc(NC(=O)C2CC2)cc1Nc1csc2c(Cl)cn(C([2H])([2H])[2H])c(=O)c12` [Example 174, 4-((7-Chloro-5-(methyl-d3)-4-oxo-4,5-dihydrothieno[3,2-c]pyridin-3-yl)amino)-6-(cyclopropanecarboxamido)-N-(methyl-d3)nicotinamide], the microsomal CLint at 1 μM in data set [1] (setting [3]) was below 11.5 µL/min/mg; in data set [1] (setting [5]) it was 18.2 µL/min/mg; in data set [1] (setting [7]) it was 25.9 µL/min/mg. In addition, the values for the half-life at 1 μM in data set [1] (setting [4]), in data set [1] (setting [6]) and in data set [1] (setting [8]) were above 2 h, 1.27 h and 0.892 h, respectively. For the same compound, in data set [2], the GI50 was 147 nM.

As to `[2H]C([2H])([2H])NC(=O)c1cnc(Nc2ccc(F)cn2)cc1Nc1ccc2cnn(C([2H])([2H])[2H])c2c1OC` [Example 141, 6-((5-Fluoropyridin-2-yl)amino)-4-((7-methoxy-1-(methyl-d3)-1H-indazol-6-yl)amino)-N-(methyl-d3)nicotinamide], the microsomal CLint at 1 μM was 93.8 µL/min/mg in data set [1] (setting [3]), 76 µL/min/mg in data set [1] (setting [5]) and 46.8 µL/min/mg in data set [1] (setting [7]). Further, the half-life at 1 μM came out at 0.246 h in data set [1] (setting [4]), 0.304 h in data set [1] (setting [6]) and 0.494 h in data set [1] (setting [8]). Moreover, the GI50 in data set [2] came to 29.1 nM.

As to `[2H]C([2H])([2H])NC(=O)c1cnc(NC(=O)C2CC2)cc1Nc1cn(CCOC)c2ccn(C(C)C(F)(F)F)c(=O)c12` (stereo not shown) [Example 201, 6-(Cyclopropanecarboxamido)-4-((1-(2-methoxyethyl)-4-oxo-5-(1,1,1-trifluoropropan-2-yl)-4,5-dihydro-1H-pyrrolo[3,2-c]pyridin-3-yl)amino)-N-(methyl-d3)nicotinamide], in data set [1] (setting [5]), the microsomal CLint at 1 μM stood at 64.4 µL/min/mg. Besides, the half-life at 1 μM in data set [1] (setting [6]) is 0.359 h. Also, the GI50 in data set [2] was determined as 162 nM.

Take `COC(=O)c1cnc(NC(=O)C2CC2)cc1Nc1ncn2ccn(CC(F)(F)F)c(=O)c12` [Example 47, Methyl 6-(cyclopropanecarboxamido)-4-((8-oxo-7-(2,2,2-trifluoroethyl)-7,8-dihydroimidazo[1,5-a]pyrazin-1-yl)amino)nicotinate]: the figures for the microsomal CLint at 1 μM in data set [1] (setting [3]), in data set [1] (setting [5]) and in data set [1] (setting [7]) were 25 µL/min/mg, 45.2 µL/min/mg and 80 µL/min/mg, respectively. In addition, the figures for the half-life at 1 μM in data set [1] (setting [4]), in data set [1] (setting [6]) and in data set [1] (setting [8]) were 0.923 h, 0.512 h and 0.288 h, respectively. Further, the GI50 in data set [2] worked out at 180 nM.

In the case of `[2H]C([2H])([2H])NC(=O)c1cnc2cc1Nc1cc(cc(-c3ncn(C)n3)c1OC)COCc1cc(C(F)(F)F)cc(n1)N2` [Example 69, 10-Methoxy-N-(methyl-d3)-11-(1-methyl-1H-1,2,4-triazol-3-yl)-19-(trifluoromethyl)-15-oxa-2,4,8,21-tetraazatetracyclo[15.3.1.1^{3,7}.1^{9,13}]tricosa-1(21),3,5,7(23),9(22),10,12,17,19-nonaene-6-carboxamide], the microsomal CLint at 1 μM came out at 1.92 µL/min/mg in data set [1] (setting [3]) and 3.32 µL/min/mg in data set [1] (setting [7]). Also, the half-life at 1 μM in data set [1] (setting [4]) is 12 h; in data set [1] (setting [6]), above 2 h; in data set [1] (setting [8]), 6.97 h. The GI50 in data set [2] amounted to 79.9 nM.

On to `CNC(=O)c1cnc(NC(=O)C2CC2)cc1Nc1csc2ccn(C)c(=O)c12` [Example 16, 6-(Cyclopropanecarboxamido)-N-methyl-4-((5-methyl-4-oxo-4,5-dihydrothieno[3,2-c]pyridin-3-yl)amino)nicotinamide], for which the microsomal CLint at 1 μM was 8.46 µL/min/mg in data set [1] (setting [3]), 27.8 µL/min/mg in data set [1] (setting [5]) and 126 µL/min/mg in data set [1] (setting [7]). Also, the half-life at 1 μM in data set [1] (setting [4]) is 2.73 h; in data set [1] (setting [6]), 0.832 h; in data set [1] (setting [8]) it was 0.184 h. Moreover, the GI50 in data set [2] came to 89.3 nM.

For `[2H]C([2H])([2H])NC(=O)c1cnc(NC(=O)C2CC2)cc1Nc1ccc2nnc(CC)n2c1OC` [Example 58, 6-(Cyclopropanecarboxamido)-4-((3-ethyl-5-methoxy-[1,2,4]triazolo[4,3-a]pyridin-6-yl)amino)-N-(methyl-d3)nicotinamide], the microsomal CLint at 1 μM in data set [1] (setting [3]), in data set [1] (setting [5]) and in data set [1] (setting [7]) was below 11.5 µL/min/mg each time. Besides, the half-life at 1 μM in data set [1] (setting [4]), in data set [1] (setting [6]) and in data set [1] (setting [8]) was above 2 h each time. In addition, the GI50 in data set [2] is above 5000 nM.

As to `[2H]C([2H])([2H])NC(=O)c1cnc(Nc2ccc(F)cn2)cc1Nc1ccc2cnn(CC)c2c1OC` [Example 42, 4-((1-Ethyl-7-methoxy-1H-indazol-6-yl)amino)-6-((5-fluoropyridin-2-yl)amino)-N-(methyl-d3)nicotinamide], the microsomal CLint at 1 μM in data set [1] (setting [3]) was 117 µL/min/mg; in data set [1] (setting [5]) it was 11.9 µL/min/mg; in data set [1] (setting [7]) it was 43.9 µL/min/mg. In addition, the half-life at 1 μM amounted to 0.198 h in data set [1] (setting [4]), 1.95 h in data set [1] (setting [6]) and 0.526 h in data set [1] (setting [8]). For the same compound, in data set [2], the GI50 is 38.8 nM.

Turning to `[2H]C([2H])([2H])NC(=O)c1cnc2cc1Nc1cc(cc(-c3ncn(C)n3)c1OC)COCc1nc(ccc1C)N2` [Example 70, 10-Methoxy-N-(methyl-d3)-18-methyl-11-(1-methyl-1H-1,2,4-triazol-3-yl)-15-oxa-2,4,8,21-tetraazatetracyclo[15.3.1.1^{3,7}.1^{9,13}]tricosa-1(20),3,5,7(23),9(22),10,12,17(21),18-nonaene-6-carboxamide], the microsomal CLint at 1 μM was 30.4 µL/min/mg in data set [1] (setting [3]), 12.7 µL/min/mg in data set [1] (setting [5]) and 7.43 µL/min/mg in data set [1] (setting [7]). The values for the half-life at 1 μM in data set [1] (setting [4]), in data set [1] (setting [6]) and in data set [1] (setting [8]) were 0.759 h, 1.83 h and 3.11 h, respectively. The GI50 in data set [2] was 30 nM.

On to `[2H]C([2H])([2H])NC(=O)c1nnc2cc1Nc1cc(cc(-c3ncn(C)n3)c1OC)CN(C)Cc1nc(ccc1F)N2` [Example 72, 18-Fluoro-10-methoxy-N-(methyl-d3)-15-methyl-11-(1-methyl-1H-1,2,4-triazol-3-yl)-2,4,5,8,15,21-hexaazatetracyclo[15.3.1.1^{3,7}.1^{9,13}]tricosa-1(20),3,5,7(23),9(22),10,12,17(21),18-nonaene-6-carboxamide], for which the results for the microsomal CLint at 1 μM in data set [1] (setting [3]), in data set [1] (setting [5]) and in data set [1] (setting [7]) were 16.2 µL/min/mg, 16.9 µL/min/mg and 87 µL/min/mg, respectively. The half-life at 1 μM was determined as 1.43 h in data set [1] (setting [4]), 1.37 h in data set [1] (setting [6]) and 0.266 h in data set [1] (setting [8]). In data set [2], the GI50 is 249 nM.
